In data set [1] the test system is human PC-3 orthotopic xenografts. The protocol: (§1) Orthotopic xenografts were obtained by injecting 2.5×10^6 human PC-3 or DU-145 cells into the prostate of 6-week-old male nu/nu mice (n=9 animals per treatment group). All grafts were performed under anesthesia [saline/Rompun (Bayer, Leverkusen, Germany)/Imalgene (Merial, Lyons, France); 5:1:1 by volume]. The end point in these orthotopic experiments was the survival period of the tumor-bearing mice after the administration of UNBS3157, UNBS5162, or reference anticancer agents (taxol, mitoxantrone, and amonafide). However, for ethical reasons, animals were killed when 20% of body weight had been lost compared to that determined at the time of tumor grafting. All animals were weighed three times a week. […] In the case of UNBS5162 experiments in the PC-3 model, after the sacrifice of animals, tumors were removed from both drug-treated [10 mg/kg, intravenous (i.v.)] and vehicle-treated mice, fixed in buffered formalin, embedded in paraffin, and 5-μm-thick sections taken. These histologic slides were then stained with hematoxylin and eosin for blood vessel counts.

In another data set the test system is PC3. As to the kind of experiment: MTT overall cell growth, PC3 cells. Format: cell-based. To be noted: Homo sapiens, 72 h; PC-3; 3 days of culturing; mean of six determinations; read-out: IC50 (μM) In Vitro Growth Inhibition. The protocol: Tests were performed in order to rapidly, i.e. within 5 days, measure the effect of the compound of example 2 on the overall cell growth. The test measures the number of metabolically active living cells that are able to transform the yellow product 3-(4,5-dimethylthiazol-2-yl)-2,5-diphenyl tetrazolium bromide (herein referred as MTT) into the blue product formazan dye by mitochondrial reduction. The amount of formazan obtained at the end of the experiment, measured by means of a spectrophotometer, is directly proportional to the number of living cells. Optical density determination thus enables a quantitative measurement of the effect of the investigated compounds as compared to the control condition (untreated cells) and/or to other reference compounds. […]
(§2) After 72 hours of incubation at 37° C. with (experimental conditions) or without (control condition) the compound to be tested, the medium was replaced by 100 μl MTT dissolved in RPMI (1640 without phenol red) at a concentration of 1 mg/ml. […] The micro-wells were shaken for 5 minutes and read on a spectrophotometer at wavelengths of 570 nm (maximum formazan absorbance) and 630 nm (back-ground noise).
For each experimental condition, the mean optical density was calculated, as well as the percentage of remaining living cells in comparison with the control. […]

In the next data set the test system is U-373MG. As to the kind of experiment: MTT overall cell growth, U-373MG cells. Particulars: Homo sapiens, 72 h; U373-MG; 3 days of culturing; mean of six determinations; read-out: IC50 (μM) In Vitro Growth Inhibition. Format: cell-based. As for the experimental part: (§3) Tests were performed in order to rapidly, i.e. within 5 days, measure the effect of the compound of example 2 on the overall cell growth. The test measures the number of metabolically active living cells that are able to transform the yellow product 3-(4,5-dimethylthiazol-2-yl)-2,5-diphenyl tetrazolium bromide (herein referred as MTT) into the blue product formazan dye by mitochondrial reduction. The amount of formazan obtained at the end of the experiment, measured by means of a spectrophotometer, is directly proportional to the number of living cells. Optical density determination thus enables a quantitative measurement of the effect of the investigated compounds as compared to the control condition (untreated cells) and/or to other reference compounds.
(§4) Six human cancer cell lines described in table 1 were used in the following MTT tests. These cell lines cover six histological cancer types, being prostate, glioma, pancreas, colon, lung and breast cancers. Cells were allowed to grow in 96 well micro-wells with a flat bottom with an amount of 100 μl of cell suspension per well with 1,000 to 4,000 cells/well depending on the cell type used. Each cell line was seeded in a well known MEM 10% serum culture medium. […]
as §2
(§5) For each experimental condition, the mean optical density was calculated, as well as the percentage of remaining living cells in comparison with the control.
(§6) The overall growth of human cancer cell lines was determined by means of the calorimetric MTT (3-[4,5-dimethylthiazol-2-yl]-diphenyl tetrazolium bromide; Sigma) assay, as detailed previously.

In a further data set the test system is BxPC3. The data set can be described thus: MTT overall cell growth, BxPC3 cells. It counts as cell-based. Particulars: Homo sapiens, BXPC-3, 72 h; Bx-PC-3; 3 days of culturing; mean of six determinations; read-out: IC50 (μM) In Vitro Growth Inhibition. As for the experimental part: as §3, §4, §2, §5, §6
A further data set deals with DU-145. As to the kind of experiment: MTT colorimetric assay, DU-145 cells. Particulars: Homo sapiens, 72 h, 3 days of culturing, mean of six determinations, read-out: IC50 (μM) In Vitro Growth Inhibition. It counts as cell-based. As for the experimental part: as §6
A further data set concerns Hs683. The data set can be described thus: MTT colorimetric assay, Hs683 cells. Format: cell-based. Particulars: Homo sapiens, Hs 683, 72 h, 3 days of culturing, mean of six determinations, read-out: IC50 (μM) In Vitro Growth Inhibition. The protocol: as §6
For orientation: Tetrazolium dyes change colour on reduction, which living cells bring about.

The subject of the next data set is HCT-15. The data set can be described thus: MTT colorimetric assay, HCT-15 cells. Format: cell-based. Particulars: Homo sapiens, 72 h, 3 days of culturing, mean of six determinations, read-out: IC50 (μM) In Vitro Growth Inhibition. The protocol: as §6
Another data set deals with LoVo. As to the kind of experiment: MTT colorimetric assay, LoVo cells. Format: cell-based. Particulars: Homo sapiens, 72 h, 3 days of culturing, mean of six determinations, read-out: IC50 (μM) In Vitro Growth Inhibition. The protocol: as §6
The next data set deals with MCF-7. The data set can be described thus: MTT colorimetric assay, MCF-7 cells. Format: cell-based. Particulars: Homo sapiens, MCF7, 72 h, 3 days of culturing, mean of six determinations, read-out: IC50 (μM) In Vitro Growth Inhibition. As for the experimental part:
as §6

For the next data set, the system named is A549. As to the kind of experiment: MTT colorimetric assay, A549 cells. It counts as cell-based. To be noted: Homo sapiens, 72 h, 3 days of culturing, mean of six determinations, read-out: IC50 (μM) In Vitro Growth Inhibition. As for the experimental part:
as §6

Data set [2] concerns nine human cancer cell lines. As to the kind of experiment: MTT colorimetric assay, mean of nine cell lines. It counts as cell-based. Particulars: mean over nine human cancer cell lines, read-out: mean antiproliferative activity IC50. As for the experimental part: as §6
UNBS3157 and UNBS5162 display weak antiproliferative activity in vitro.

The test system of a further data set is P-glycoprotein. As to the kind of experiment: P-gp ATPase activity (P-gp Drug interaction Assay Kit). Format: biochemical. As for the experimental part: In order to test drug interaction with P-glucoprotein (herein-after referred as P-gp) we used an assay based on the study of modulation of ATPase activity from enriched P-gp membrane vesicle preparation (the following kit has been used: P-gp Drug interaction Assay Kit commercially available from SPI BIO France). P-gp ATPase activity was measured by a spectrophotometric method based on monitoring of ADP formation in the vesicle suspension medium. The basal ATPase activity was defined as the activity determined in the absence of any added drug. […]

The test system of data set [3] is human DU-145 orthotopic xenografts. As to the kind of experiment: Orthotopic DU-145 prostate cancer xenograft, survival. Format: in vivo, nu/nu mice. Particulars: DU-145 orthotopic model. The protocol:
as §1

The nature of data set [4]: In vitro stability of UNBS3157 in saline/DMSO. Particulars: physiological saline/DMSO (95:5 v/v), 37° C. Format: physicochemical.
Another data set has as its system PC-3. The data set can be described thus: Senescence-associated β-galactosidase staining, PC-3. Particulars: 20 nM Adriamycin, 72 hours. Format: cell-based, human. The protocol:
After the indicated treatments, cells were washed in PBS, fixed for 3 to 5 minutes (at room temperature) in 2% formaldehyde/0.2% glutaraldehyde, washed and incubated at 37° C. (in the absence of CO2) with fresh senescence-associated β-Gal (SA-β-Gal) staining solution: 1 mg/ml of 5-bromo-4-chloro-3-indolyl […] (X-Gal; Sigma). Staining was evident within 2 to 4 hours and maximal after 12 to 16 hours. To detect lysosomal β-Gal, the citric acid/sodium phosphate used was pH 4.0. As described in the study of Dimri et al. [Proc Natl Acad Sci USA. 1995; 92:9363-9367.], after fixing and staining with X-Gal, the number of cells positive for the SA-β-Gal activity (intense blue staining) was then counted independently by two different individuals (on 400 cells/plate). Representative photographs (original magnifications, ×20) of stained cells from different experimental treatments were taken. As a positive control for SA-β-Gal expression, Adriamycin-treated cells were used.
Human PC-3 and DU-145 prostate cancer cells cultured in 0 or 10 μM UNBS5162 or 20 nM Adriamycin for 72 hours were evaluated by SA-β-Gal staining. The data clearly indicate that 10 μM [but not 1 μM or 5×1 μM] […] TMZ, as an inducer of autophagy but not of senescence, was used as a negative control.

Data set [5] concerns platelets, red and white blood cells. The data set can be described thus: Compound-induced hematotoxicity and tolerance in mice. It counts as in vivo. Particulars: five times a week for three weeks. As for the experimental part: We have determined the compound-induced potential hematotoxicity of the compound produced according to example 2 or example 7 on platelets, red and white blood cells in comparison of the effect of amonafide on platelets, red and white blood cells. The effect of amonafide was evaluated at 10 mg/kg and 20 mg/kg, by the intra-peritoneal administration to mice. The administration schedule was five times a week for three consecutive weeks. The effect of the compound produced according to example 2 or example 7 was evaluated at 20 mg/kg, by the intra-venous administration to mice. The administration schedule was three times a week (on Mondays, Wednesdays and Fridays) for five consecutive weeks. The animals were sacrificed 3 days after the last injection. There were 10 mice per group. FIG. 1 illustrates results of this assay for compound-induced hematotoxicity on platelets.

In data set [6] the test system is human A549 NSCLC orthotopic. Particulars: Taxol i.v. 20 mg/kg (1i × 3w). The protocol:
The purpose of the present study was to evaluate the in vivo efficacy of UNBS5162 on human A549 NSCLC orthotopic nude mice model. The endpoint in this experiment was the survival period of the tumor-bearing mice following treatment, as indicated.
The experiment comprised 6 groups of II mice, one group with mice receiving the vehicle only (Ct group) and 5 groups receiving the treatments as indicated in the Table 13. UNBS5162 was dosed i.v. at 10 mg/kg (in lactic acid vehicle). Taxol (Paclitaxel 6 mg/mL, Bristol-Myers Squibb) was dosed i.v. at 20 mg/kg.

Where “and” joins values, the source holds several entries; their conditions need not be identical. Equal values may be shown once. Read-outs that look alike come from different tables or passages of the source.

As to `O=C1c2c(O)ccc(O)c2C(=O)c2c(NCCNCCO)ccc(NCCNCCO)c21` [mitoxantrone, reference compound], the “therapeutic benefit (survival)” value in data set [1] (PC-3 orthotopic model, mitoxantrone i.v.) is “failed to contribute any therapeutic benefit”. In addition, the toxicity entry in [1] (mouse, in vivo, iv, 2.5 mg/kg) was “highly toxic”.
Consider `CN(C)CCN1C(=O)c2cccc3cc(NC(=O)NC(=O)C(Cl)(Cl)Cl)cc(c23)C1=O` [UNBS3157, 2,2,2-trichloro-N-[({2-[2-(dimethylamino)ethyl]-1,3-dioxo-2,3-dihydro-1H-benzo[de]isoquinolin-5-yl}amino)carbonyl]acetamide], for which the IC50 (as a rule, the concentration at which inhibition is half-maximal) is 15.1 µM in the data set with PC3; 3.9 µM in the data set on U-373MG; 17.2 µM with BxPC3; 23 µM in the data set with DU-145; 9.9 µM in the data set on Hs683; 29.3 µM in the data set on HCT-15. For the same compound, the IC50 in the data set with LoVo stood at 26.4 µM; in the data set with MCF-7, 44.3 µM; in the data set on A549, 8.7 µM; in data set [2], 19.8 µM. In the data set with P-glycoprotein (100 μM (data not shown)), the “modulation of Pgp ATPase activity” value is listed as “do not affect Pgp ATPase activity”. For the same compound, the “% T/C” value is 100% in [1] (PC-3 orthotopic model, 40 mg/kg p.o.); 151% in data set [1] (PC-3 orthotopic model, 160 mg/kg orally); 143% in [3] (20 mg/kg i.v.); 164% in [3] (40 mg/kg orally). Moreover, the “production of amonafide on hydrolysis” value in data set [4] (22-hour incubation) is on record as “without production of amonafide”. Also, the “hydrolyzed to UNBS5162” value in data set [4] (in 270 minutes, 10^−4 M) was determined as 90%.
As for `COc1cccc2c1C(=O)c1c(O)c3c(c(O)c1C2=O)C[C@@](O)(C(=O)CO)C[C@@H]3O[C@H]1C[C@H](N)[C@H](O)[C@H](C)O1` [Adriamycin, doxorubicin, reference compound], the SA-β-Gal expression result with PC-3 is recorded as “Limited SA-β-Gal expression”.
`CN(C)CCN1C(=O)c2cccc3cc(N)cc(c23)C1=O` [amonafide]: the results for the “tolerance of chronic administrations” value in [5] (10 mg/kg intra-peritoneal) and in [5] (20 mg/kg intra-peritoneal) were “tolerated 15 chronic administrations” and “all animals died before receiving the complete set of 15 administrations”, respectively. Besides, in the data set on P-glycoprotein (50 μM), the “modulation of basal P-gp ATPase activity” value is reported as “significantly alter the ATPase activity”. In addition, the “% T/C” value in data set [1] (PC-3 orthotopic model, 40 mg/kg p.o., 40 mg/kg) was 103% and 107%; in data set [3] (40 mg/kg orally) it was 138%. In data set [3] (20 mg/kg i.v. and lower doses), the “activity (survival)” value is “inactive”.
As to `CC(=O)O[C@H]1C(=O)[C@@]2(C)[C@H]([C@H](OC(=O)c3ccccc3)[C@]3(O)C[C@H](OC(=O)[C@H](O)[C@@H](NC(=O)c4ccccc4)c4ccccc4)C(C)=C1C3(C)C)[C@]1(OC(C)=O)CO[C@@H]1C[C@@H]2O` [taxol, reference compound], the “% T/C” value in [3] (20 mg/kg i.v.) is 146%. Moreover, the “T/C (%)” value in [6] worked out at 128%.

Values taken from patent US20090186915A1, “Compositions and methods for treatment of glioblastoma, gliosarcoma, NSCLC, and head and neck cancer” (Unibioscreen S. A., priority 2006, published 2009).
